The text below walks through data of PubChem BioAssay AID2433 (Vanderbilt High Throughput Screening Facility, 2010).

Calls of active or inactive are those of the source.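 The calls were made as follows: active = a concentration-response curve whose fit quality R2 exceeds 0.5; inactive = the rest.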

This experiment addresses Muscarinic acetylcholine receptor M5 (Homo sapiens) (UniProt P08912). Kind of experiment: potentiation of ACh calcium response at M5 – cell-based, CHO-K1 M5, Fluo-4 calcium, ACh EC20, selectivity assay for M1 muscarinic PAM project, dose response (AID 2433). Conditions: CHO-K1 M5 cells; for % of max ACh response: at 30 µM (top of the series).

Sequence of Muscarinic acetylcholine receptor M5 (Homo sapiens) (P08912 whole entry, looked up): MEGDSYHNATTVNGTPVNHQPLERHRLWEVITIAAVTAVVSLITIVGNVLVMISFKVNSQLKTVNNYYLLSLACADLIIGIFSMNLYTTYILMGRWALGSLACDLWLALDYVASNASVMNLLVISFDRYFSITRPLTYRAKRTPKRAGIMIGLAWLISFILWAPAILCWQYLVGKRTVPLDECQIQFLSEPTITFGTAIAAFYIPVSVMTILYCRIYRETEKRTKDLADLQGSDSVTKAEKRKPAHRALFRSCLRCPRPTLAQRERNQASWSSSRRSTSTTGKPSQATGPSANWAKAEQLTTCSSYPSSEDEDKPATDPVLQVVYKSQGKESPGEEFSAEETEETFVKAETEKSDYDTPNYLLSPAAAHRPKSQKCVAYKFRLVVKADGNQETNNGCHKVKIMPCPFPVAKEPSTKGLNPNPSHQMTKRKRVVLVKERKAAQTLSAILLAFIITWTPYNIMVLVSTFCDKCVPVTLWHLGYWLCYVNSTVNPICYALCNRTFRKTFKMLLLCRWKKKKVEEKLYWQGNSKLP

Regarding `Cn1cc(-c2cc(F)c(CN3C(=O)C(=O)c4ccccc43)c(F)c2)cn1`, the “% of max ACh response” value is “inactive”.

For `Cn1cc(-c2ccc(CN3C(=O)C(=O)c4ccccc43)c(F)c2)cn1`, the “% of max ACh response” value was “inactive”.

For `Cn1cc(-c2ccc(CN3C(=O)C(=O)c4ccccc43)cc2)cn1`, the EC50 result was “inactive”.
